The record followed here is ChEMBL document CHEMBL1268954, “Toward the development of innovative bifunctional agents to induce differentiation and to promote apoptosis in leukemia: clinical candidates and perspectives” (J Med Chem, 2010).

Some results are limits rather than exact numbers.

The nature of data set [1]: Oral bioavailability in rat. Format: ADME, organism-based. To be noted: in vivo.
Data set [2] is described as follows: Oral bioavailability in dog. Format: ADME, organism-based, Canis lupus familiaris. To be noted: in vivo.
Data set [3] is described as follows: Oral bioavailability in mouse. Format: ADME, organism-based. The settings on record: in vivo.
Data set [4] has as its target Apoptosis regulator Bcl-2 (Homo sapiens, UniProt P10415). Kind of data set: Binding affinity to BCl2.
Data set [5] can be described thus: Inhibition of FTase.
Data set [6] in a line: Aqueous solubility of the compound. Format: physicochemical. The settings on record: aqueous medium.
Data set [7] is described as follows: Induction of apoptosis in human CLL cells. Format: functional, cell-based.
Data set [8] is described as follows: Selectivity ratio of IC50 for cathepsin to IC50 for proteasome.
Data set [9] can be described thus: Inhibition of proteasome. Format: subcellular.
In data set [10] the target is T1, Cathepsin G (Homo sapiens, UniProt P08311).
T1 sequence (P08311 whole entry): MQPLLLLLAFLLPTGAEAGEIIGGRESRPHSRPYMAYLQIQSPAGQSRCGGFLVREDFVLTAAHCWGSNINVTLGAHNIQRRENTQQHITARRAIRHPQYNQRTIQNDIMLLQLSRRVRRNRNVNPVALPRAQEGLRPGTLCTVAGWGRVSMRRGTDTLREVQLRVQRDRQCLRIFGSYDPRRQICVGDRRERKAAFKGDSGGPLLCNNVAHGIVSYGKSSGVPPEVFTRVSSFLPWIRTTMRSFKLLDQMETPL
Nature of the data set: Inhibition of cathepsin G.

In data set [11] the target is T1, Cathepsin G. Nature of the data set: Inhibition of cathepsin G in human MOLT4 cells. Format: cell-based, MOLT-4.

Sequence of Apoptosis regulator Bcl-2 (P10415 whole entry): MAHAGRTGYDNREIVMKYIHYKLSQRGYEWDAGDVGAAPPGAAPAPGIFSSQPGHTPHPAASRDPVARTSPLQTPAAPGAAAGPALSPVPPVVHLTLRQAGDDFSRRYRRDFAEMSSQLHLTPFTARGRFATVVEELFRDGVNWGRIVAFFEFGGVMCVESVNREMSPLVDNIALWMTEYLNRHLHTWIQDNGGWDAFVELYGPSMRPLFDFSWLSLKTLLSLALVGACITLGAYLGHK

With `COC[C@H](NC(=O)c1cnc(C)s1)C(=O)N[C@@H](COC)C(=O)N[C@@H](Cc1ccccc1)C(=O)[C@]1(C)CO1`, the bioavailability in [1] worked out at 21%; in data set [2], 39%; in data set [3], 17%.

Regarding `CN(C)CC[C@H](CSc1ccccc1)Nc1ccc(S(=O)(=O)NC(=O)c2ccc(N3CCC(C)(C)CC3)cc2)cc1[N+](=O)[O-]`, affinity in data set [4] was put at a Ki of 62 nM.

Compound `Cn1cncc1[C@](N)(c1ccc(Cl)cc1)c1ccc2c(c1)c(-c1cccc(Cl)c1)cc(=O)n2C` [(S)-TIPIFARNIB] had an EC50 in data set [5] of 1.8 nM.

In data set [6], `CN(C)CC[C@H](CSc1ccccc1)Nc1ccc(S(=O)(=O)NC(=O)c2ccc(N3CCN(Cc4ccccc4-c4ccc(Cl)cc4)CC3)cc2)cc1[N+](=O)[O-]` [ABT 737] displayed a solubility below 1 µg/mL. Further, in data set [7], the EC50 is 4.5 nM.

Take `CC(C)C[C@H](NC(=O)[C@H](Cc1ccccc1)NC(=O)c1cnccn1)B(O)O` [BORTEZOMIB]: the Ratio IC50 in data set [8] is 200000. The IC50 in data set [9] worked out at 0.6 nM.

`CC(C)C[C@H](NC(=O)[C@@H](NC(=O)c1cccc(-c2ccccc2)n1)[C@@H](C)O)B(O)O` [DELANZOMIB] returned a 50% inhibitory concentration (IC50) on Cathepsin G [10] of 13.7 nM. The EC50 on Cathepsin G [11] was 13.5 nM.

`Cn1cncc1[C@@](N)(c1ccc(Cl)cc1)c1ccc2c(c1)c(-c1cccc(Cl)c1)cc(=O)n2C` [TIPIFARNIB] returned an IC50 in [5] of 0.6 nM. This counts as sub-nanomolar.
